In ChEMBL document CHEMBL1201862, “PubChem BioAssay data set” (2004):
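Assay format: 96-well plates, 48-hour exposure. Abbreviation: GI50, concentration required for 50% inhibition of growth.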 The source made the active and inactive calls. No stated cut-off is given here; in the data, active = GI50 up to about 1.1 µM and inactive = higher.

Tests used:
Assay in all cases: DTP human tumour cell line panel, 48 h
SNB-19 = test system: SNB-19
MDA-MB-231 = test system: MDA-MB-231
MDA-N = test system: MDA-N
Malme-3M = test system: Malme-3M
A549 = test system: A549
786-0 = test system: 786-0
SF-295 = test system: SF-295
HT-29 = test system: HT-29
SW-620 = test system: SW-620
OVCAR-5 = test system: OVCAR-5
SF-268 = test system: SF-268
SK-MEL-2 = test system: SK-MEL-2
UACC-257 = test system: UACC-257
NCI-H23 = test system: NCI-H23
HCT-116 = test system: HCT-116
RPMI-8226 = test system: RPMI-8226
SN12C = test system: SN12C
KM12 = test system: KM12
U-251 = test system: U-251
A498 = test system: A498
T47D = test system: T47D
RXF 393 = test system: RXF 393
SK-MEL-28 = test system: SK-MEL-28
COLO 205 = test system: COLO 205
MDA-MB-435 = test system: MDA-MB-435
HCC 2998 = test system: HCC 2998
SK-MEL-5 = test system: SK-MEL-5
TK-10 = test system: TK-10
NCI-H460 = test system: NCI-H460
UACC-62 = test system: UACC-62
HCT-15 = test system: HCT-15
OVCAR-4 = test system: OVCAR-4
CAKI-1 = test system: CAKI-1
M14 = test system: M14
HL-60 = test system: HL-60
LOX IMVI = test system: LOX IMVI
Hs-578T = test system: Hs-578T
NCI-H522 = test system: NCI-H522
SK-OV-3 = test system: SK-OV-3
MOLT-4 = test system: MOLT-4
OVCAR-8 = test system: OVCAR-8
NCI/ADR-RES = test system: NCI/ADR-RES
ACHN = test system: ACHN
IGROV-1 = test system: IGROV-1
CCRF-CEM = test system: CCRF-CEM
SF-539 = test system: SF-539
MCF7 = test system: MCF7
EKVX = test system: EKVX
OVCAR-3 = test system: OVCAR-3
HOP-62 = test system: HOP-62
DU-145 = test system: DU-145
PC-3 = test system: PC-3
BT-549 = test system: BT-549

## CC1(C)O[C@H]([C@H](O)c2nnc3ccc(Cl)nn23)[C@@H]([C@H]2COC(C)(C)O2)O1
SNB-19
  GI50: > 100 µM (inactive)
MDA-MB-231
  GI50: > 100 µM (inactive)
MDA-N
  GI50: > 100 µM (inactive)
Malme-3M
  GI50: > 100 µM (inactive)
A549
  GI50: > 100 µM (inactive)
786-0
  GI50: > 100 µM (inactive)
SF-295
  GI50: > 100 µM (inactive)
HT-29
  GI50: > 100 µM (inactive)
SW-620
  GI50: > 100 µM (inactive)
OVCAR-5
  GI50: > 100 µM (inactive)
SF-268
  GI50: > 100 µM (inactive)
SK-MEL-2
  GI50: > 100 µM (inactive)
UACC-257
  GI50: > 100 µM (inactive)
NCI-H23
  GI50: > 100 µM (inactive)
HCT-116
  GI50: > 100 µM (inactive)
RPMI-8226
  GI50: > 100 µM (inactive)
SN12C
  GI50: > 100 µM (inactive)
KM12
  GI50: > 100 µM (inactive)
U-251
  GI50: > 100 µM (inactive)
A498
  GI50: > 100 µM (inactive)
T47D
  GI50: > 100 µM (inactive)
RXF 393
  GI50: > 100 µM (inactive)
SK-MEL-28
  GI50: > 100 µM (inactive)
COLO 205
  GI50: > 100 µM (inactive)
MDA-MB-435
  GI50: > 100 µM (inactive)
HCC 2998
  GI50: > 100 µM (inactive)
SK-MEL-5
  GI50: > 100 µM (inactive)
TK-10
  GI50: > 100 µM (inactive)
NCI-H460
  GI50: > 100 µM (inactive)
UACC-62
  GI50: > 100 µM (inactive)
HCT-15
  GI50: > 100 µM
OVCAR-4
  GI50: > 100 µM (inactive)
CAKI-1
  GI50: > 100 µM (inactive)
M14
  GI50: > 100 µM (inactive)
HL-60
  GI50: > 100 µM (inactive)
LOX IMVI
  GI50: > 100 µM (inactive)
Hs-578T
  GI50: > 100 µM (inactive)
NCI-H522
  GI50: > 100 µM (inactive)
SK-OV-3
  GI50: > 100 µM (inactive)
MOLT-4
  GI50: > 100 µM (inactive)
OVCAR-8
  GI50: > 100 µM (inactive)
NCI/ADR-RES
  GI50: > 100 µM (inactive)
ACHN
  GI50: > 100 µM (inactive)
IGROV-1
  GI50: > 100 µM (inactive)
CCRF-CEM
  GI50: > 100 µM (inactive)
SF-539
  GI50: > 100 µM (inactive)
MCF7
  GI50: > 100 µM (inactive)
EKVX
  GI50: > 100 µM (inactive)
OVCAR-3
  GI50: > 100 µM (inactive)
HOP-62
  GI50: > 100 µM (inactive)
DU-145
  GI50: > 100 µM (inactive)
PC-3
  GI50: > 100 µM (inactive)
BT-549
  GI50: > 100 µM (inactive)
